This note sets out measurements from PMC3694096, “Development of Novel In Vivo Chemical Probes to Address CNS Protein Kinase Involvement in Synaptic Dysfunction” (PLoS ONE, 2013).

Assay [1] concerns the target T1, PKBα (Homo sapiens, UniProt P31749).
T1 construct: purchased Millipore KinaseProfiler
The experiment in a line: Kinome profiler screen. Type of assay: biochemical. To be noted: at 20,000 nM inhibitor; kinase activity remaining.

The target in assay [2] is T2, CHK2(I157T) (Homo sapiens, UniProt O96017, I157T).
T2 construct: purchased Millipore KinaseProfiler
Nature of the assay: Kinome profiler screen. The format is biochemical. The conditions noted are these: at 20,000 nM inhibitor; kinase activity remaining.

Assay [3] concerns the target T3, MSSK1 (Homo sapiens, UniProt Q9UPE1).
T3 construct: purchased Millipore KinaseProfiler
Nature of the assay: Kinome profiler screen. The format is biochemical. The conditions noted are these: at 20,000 nM inhibitor; kinase activity remaining.

In assay [4] the target is T4, EphB2 (Homo sapiens, UniProt P29323).
T4 construct: purchased Millipore
T4 sequence (P29323 19-1055): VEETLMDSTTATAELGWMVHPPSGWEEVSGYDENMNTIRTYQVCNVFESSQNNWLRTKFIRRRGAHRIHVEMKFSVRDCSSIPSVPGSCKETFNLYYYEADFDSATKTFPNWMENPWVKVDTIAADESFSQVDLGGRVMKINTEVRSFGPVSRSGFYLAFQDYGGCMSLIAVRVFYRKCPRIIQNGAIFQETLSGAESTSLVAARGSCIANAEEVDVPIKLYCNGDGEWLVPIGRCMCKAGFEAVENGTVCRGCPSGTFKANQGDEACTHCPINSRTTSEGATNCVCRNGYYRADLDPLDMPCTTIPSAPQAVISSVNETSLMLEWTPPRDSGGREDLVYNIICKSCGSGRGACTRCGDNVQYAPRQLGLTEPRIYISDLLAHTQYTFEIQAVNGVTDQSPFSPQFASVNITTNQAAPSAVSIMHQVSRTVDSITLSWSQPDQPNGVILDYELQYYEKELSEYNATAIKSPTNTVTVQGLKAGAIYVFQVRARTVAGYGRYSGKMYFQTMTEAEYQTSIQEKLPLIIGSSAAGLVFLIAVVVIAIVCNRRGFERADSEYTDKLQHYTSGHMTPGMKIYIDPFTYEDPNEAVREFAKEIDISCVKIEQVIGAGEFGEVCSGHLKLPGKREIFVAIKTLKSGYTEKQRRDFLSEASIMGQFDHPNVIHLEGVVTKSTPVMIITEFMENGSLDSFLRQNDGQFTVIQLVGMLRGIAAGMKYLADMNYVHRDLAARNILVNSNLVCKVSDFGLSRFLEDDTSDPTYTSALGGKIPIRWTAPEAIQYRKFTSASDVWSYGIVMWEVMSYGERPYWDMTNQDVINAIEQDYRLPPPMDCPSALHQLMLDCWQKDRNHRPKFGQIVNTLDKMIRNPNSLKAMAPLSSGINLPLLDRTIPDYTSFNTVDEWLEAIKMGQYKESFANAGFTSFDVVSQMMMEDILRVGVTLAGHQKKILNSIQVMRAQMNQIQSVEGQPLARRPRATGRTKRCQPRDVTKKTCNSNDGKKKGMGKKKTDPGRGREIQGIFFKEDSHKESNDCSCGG
Nature of the assay: Kinome profiler screen. Type of assay: biochemical. The conditions noted are these: for activity at 20 µM: at 20,000 nM inhibitor, kinase activity remaining.

Assay [5] deals with T5, DDR2 (Homo sapiens, UniProt Q16832).
T5 construct: purchased Millipore
T5 sequence (Q16832 22-855): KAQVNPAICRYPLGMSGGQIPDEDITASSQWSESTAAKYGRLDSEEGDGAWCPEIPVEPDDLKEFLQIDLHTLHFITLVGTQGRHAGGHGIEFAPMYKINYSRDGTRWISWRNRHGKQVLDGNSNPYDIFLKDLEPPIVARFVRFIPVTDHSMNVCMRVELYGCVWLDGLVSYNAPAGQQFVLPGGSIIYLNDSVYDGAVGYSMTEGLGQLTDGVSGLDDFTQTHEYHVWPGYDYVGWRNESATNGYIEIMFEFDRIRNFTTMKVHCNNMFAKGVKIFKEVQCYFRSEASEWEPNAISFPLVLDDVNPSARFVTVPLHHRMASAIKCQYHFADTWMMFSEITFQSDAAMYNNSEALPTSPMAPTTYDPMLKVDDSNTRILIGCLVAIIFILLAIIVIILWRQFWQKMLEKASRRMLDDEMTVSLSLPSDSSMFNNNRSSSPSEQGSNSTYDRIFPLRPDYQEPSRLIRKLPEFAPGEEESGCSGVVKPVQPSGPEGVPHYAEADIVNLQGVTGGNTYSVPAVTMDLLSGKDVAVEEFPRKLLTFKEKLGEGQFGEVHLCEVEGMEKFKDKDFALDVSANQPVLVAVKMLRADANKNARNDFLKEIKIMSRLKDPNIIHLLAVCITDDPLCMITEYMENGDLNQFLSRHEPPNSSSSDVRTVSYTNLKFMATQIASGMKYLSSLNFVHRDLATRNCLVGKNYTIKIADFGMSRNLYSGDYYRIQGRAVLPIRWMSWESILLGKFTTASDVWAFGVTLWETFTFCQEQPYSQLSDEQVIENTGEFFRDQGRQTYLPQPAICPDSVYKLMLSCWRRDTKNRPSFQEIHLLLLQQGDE
Nature of the assay: Kinome profiler screen. Type of assay: biochemical.

Assay [6] deals with T6, MSK1 (Homo sapiens, UniProt O75582).
T6 construct: purchased Millipore KinaseProfiler
Nature of the assay: Kinome profiler screen. The format is biochemical. The conditions noted are these: at 20,000 nM inhibitor; kinase activity remaining.

Assay [7] deals with T7, MRCKβ (Homo sapiens, UniProt Q9Y5S2).
T7 construct: purchased Millipore KinaseProfiler
The experiment in a line: Kinome profiler screen. The format is biochemical. To be noted: at 20,000 nM inhibitor; kinase activity remaining.

Assay [8] concerns the target T8, PDK1 (Homo sapiens, UniProt O15530).
T8 construct: purchased Millipore KinaseProfiler
The experiment in a line: Kinome profiler screen. The format is biochemical. The conditions noted are these: at 20,000 nM inhibitor; kinase activity remaining.

The target of assay [9] is JNK1α1 (Homo sapiens, UniProt P45983). Nature of the assay: biochemical.
In assay [10] the target is T9, CaMKIδ (Homo sapiens, UniProt Q8IU85).
T9 construct: purchased Millipore KinaseProfiler
Nature of the assay: Kinome profiler screen. Type of assay: biochemical. To be noted: at 20,000 nM inhibitor; kinase activity remaining.

In assay [11] the target is T10, TrkB (Homo sapiens, UniProt Q16620).
T10 construct: purchased Millipore KinaseProfiler
Nature of the assay: Kinome profiler screen. The format is biochemical.

Assay [12] deals with T11, PI3K-C2γ (Homo sapiens, UniProt O75747).
T11 construct: purchased Millipore KinaseProfiler
The experiment in a line: Kinome profiler screen. Type of assay: biochemical. The conditions noted are these: at 20,000 nM inhibitor; kinase activity remaining.

Assay [13] has as its system primary microglia from wild-type (WT) mice. Nature of the assay: LPS-induced IL-1β in primary microglia, wild-type. The format is cell-based, C57Bl/6 mice. The conditions noted are these: LPS 3 ng/ml, 24 hrs.
Assay [14] concerns the target T12, PKCβI (Homo sapiens, UniProt P05771).
T12 construct: purchased Millipore KinaseProfiler
Nature of the assay: Kinome profiler screen. The conditions noted are these: at 20,000 nM inhibitor; kinase activity remaining. Type of assay: biochemical.

In assay [15] the target is T13, PI3 Kinase (p110α (E542K)/p85α) (Homo sapiens, UniProt P42336, E542K).
T13 construct: purchased Millipore KinaseProfiler
The experiment in a line: Kinome profiler screen. Type of assay: biochemical. The conditions noted are these: at 20,000 nM inhibitor; kinase activity remaining.

Assay [16] addresses T14, CDK9/cyclin T1 (Homo sapiens, UniProt P50750).
T14 construct: purchased Millipore KinaseProfiler
The experiment in a line: Kinome profiler screen. To be noted: at 20,000 nM inhibitor; kinase activity remaining. Type of assay: biochemical.

Assay [17] deals with T15, ALK (Homo sapiens, UniProt Q9UM73).
T15 construct: purchased Millipore KinaseProfiler
Nature of the assay: Kinome profiler screen. Type of assay: biochemical. To be noted: at 20,000 nM inhibitor; kinase activity remaining.

Assay [18] deals with T16, SAPK2b (SAPK=p38MAPK) (Homo sapiens, UniProt Q15759).
T16 construct: purchased Millipore
Nature of the assay: Kinome profiler screen. Type of assay: biochemical. To be noted: at 20,000 nM inhibitor; kinase activity remaining.

[19] abbreviates: at 20,000 nM inhibitor, kinase activity remaining, read-out: % Activity.

Like-named read-outs stand apart in the source and are kept apart here.

T8 sequence (O15530 whole entry): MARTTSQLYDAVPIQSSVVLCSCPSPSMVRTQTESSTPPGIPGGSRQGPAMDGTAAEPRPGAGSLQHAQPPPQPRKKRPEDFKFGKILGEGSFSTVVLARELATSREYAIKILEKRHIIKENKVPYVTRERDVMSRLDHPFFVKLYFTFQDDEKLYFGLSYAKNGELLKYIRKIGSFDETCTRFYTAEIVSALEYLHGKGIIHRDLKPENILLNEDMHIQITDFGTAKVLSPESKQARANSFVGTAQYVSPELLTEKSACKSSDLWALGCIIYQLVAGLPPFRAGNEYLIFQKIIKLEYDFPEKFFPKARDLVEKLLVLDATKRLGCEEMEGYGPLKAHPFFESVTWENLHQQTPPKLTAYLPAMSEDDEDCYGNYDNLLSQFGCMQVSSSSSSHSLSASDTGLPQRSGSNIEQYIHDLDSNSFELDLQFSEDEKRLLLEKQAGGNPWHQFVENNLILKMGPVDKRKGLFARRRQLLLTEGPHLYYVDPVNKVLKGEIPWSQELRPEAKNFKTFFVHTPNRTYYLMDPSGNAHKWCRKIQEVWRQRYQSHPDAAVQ
T7 sequence (Q9Y5S2 whole entry): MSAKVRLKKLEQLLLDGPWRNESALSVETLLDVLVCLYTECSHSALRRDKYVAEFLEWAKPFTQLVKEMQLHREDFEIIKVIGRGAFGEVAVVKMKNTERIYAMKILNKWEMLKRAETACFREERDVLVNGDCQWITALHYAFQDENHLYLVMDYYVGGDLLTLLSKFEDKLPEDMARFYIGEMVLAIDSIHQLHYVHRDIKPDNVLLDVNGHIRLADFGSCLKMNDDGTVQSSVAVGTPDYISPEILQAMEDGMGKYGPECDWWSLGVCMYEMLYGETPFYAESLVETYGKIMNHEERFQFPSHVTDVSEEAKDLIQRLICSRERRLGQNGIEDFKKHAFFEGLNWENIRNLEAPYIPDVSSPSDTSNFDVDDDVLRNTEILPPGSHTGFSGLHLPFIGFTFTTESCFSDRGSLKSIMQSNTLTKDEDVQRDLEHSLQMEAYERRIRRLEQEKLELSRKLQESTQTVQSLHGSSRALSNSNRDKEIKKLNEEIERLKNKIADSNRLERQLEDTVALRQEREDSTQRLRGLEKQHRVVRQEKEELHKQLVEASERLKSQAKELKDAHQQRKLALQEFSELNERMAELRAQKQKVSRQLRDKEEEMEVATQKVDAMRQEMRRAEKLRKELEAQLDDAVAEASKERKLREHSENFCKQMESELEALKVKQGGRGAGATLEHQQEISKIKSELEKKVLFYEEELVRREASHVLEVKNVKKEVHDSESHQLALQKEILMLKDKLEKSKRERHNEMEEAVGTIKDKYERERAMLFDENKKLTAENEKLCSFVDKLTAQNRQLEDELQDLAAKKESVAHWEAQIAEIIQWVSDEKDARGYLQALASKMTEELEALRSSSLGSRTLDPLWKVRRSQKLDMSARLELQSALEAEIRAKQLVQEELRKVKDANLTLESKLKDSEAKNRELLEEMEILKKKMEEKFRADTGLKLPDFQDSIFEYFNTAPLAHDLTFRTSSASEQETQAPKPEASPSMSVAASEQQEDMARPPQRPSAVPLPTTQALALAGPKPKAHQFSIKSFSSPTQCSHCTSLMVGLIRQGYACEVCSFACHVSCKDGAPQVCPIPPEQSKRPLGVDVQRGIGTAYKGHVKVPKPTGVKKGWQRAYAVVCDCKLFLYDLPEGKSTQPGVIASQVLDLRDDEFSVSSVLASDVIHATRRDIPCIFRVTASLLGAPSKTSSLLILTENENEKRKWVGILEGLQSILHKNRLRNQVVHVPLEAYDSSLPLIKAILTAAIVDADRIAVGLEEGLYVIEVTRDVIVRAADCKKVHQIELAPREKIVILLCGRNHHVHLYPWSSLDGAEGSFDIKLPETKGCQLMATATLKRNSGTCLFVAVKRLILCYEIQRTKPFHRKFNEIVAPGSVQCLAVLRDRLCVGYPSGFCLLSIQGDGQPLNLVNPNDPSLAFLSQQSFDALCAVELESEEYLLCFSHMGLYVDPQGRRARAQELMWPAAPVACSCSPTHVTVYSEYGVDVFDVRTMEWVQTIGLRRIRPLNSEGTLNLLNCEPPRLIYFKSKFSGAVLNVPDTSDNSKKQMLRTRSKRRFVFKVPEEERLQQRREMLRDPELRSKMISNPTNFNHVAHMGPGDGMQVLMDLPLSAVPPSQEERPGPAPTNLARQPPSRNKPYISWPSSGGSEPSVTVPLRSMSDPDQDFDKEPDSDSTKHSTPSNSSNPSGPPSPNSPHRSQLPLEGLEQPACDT
T10 sequence (Q16620 32-822): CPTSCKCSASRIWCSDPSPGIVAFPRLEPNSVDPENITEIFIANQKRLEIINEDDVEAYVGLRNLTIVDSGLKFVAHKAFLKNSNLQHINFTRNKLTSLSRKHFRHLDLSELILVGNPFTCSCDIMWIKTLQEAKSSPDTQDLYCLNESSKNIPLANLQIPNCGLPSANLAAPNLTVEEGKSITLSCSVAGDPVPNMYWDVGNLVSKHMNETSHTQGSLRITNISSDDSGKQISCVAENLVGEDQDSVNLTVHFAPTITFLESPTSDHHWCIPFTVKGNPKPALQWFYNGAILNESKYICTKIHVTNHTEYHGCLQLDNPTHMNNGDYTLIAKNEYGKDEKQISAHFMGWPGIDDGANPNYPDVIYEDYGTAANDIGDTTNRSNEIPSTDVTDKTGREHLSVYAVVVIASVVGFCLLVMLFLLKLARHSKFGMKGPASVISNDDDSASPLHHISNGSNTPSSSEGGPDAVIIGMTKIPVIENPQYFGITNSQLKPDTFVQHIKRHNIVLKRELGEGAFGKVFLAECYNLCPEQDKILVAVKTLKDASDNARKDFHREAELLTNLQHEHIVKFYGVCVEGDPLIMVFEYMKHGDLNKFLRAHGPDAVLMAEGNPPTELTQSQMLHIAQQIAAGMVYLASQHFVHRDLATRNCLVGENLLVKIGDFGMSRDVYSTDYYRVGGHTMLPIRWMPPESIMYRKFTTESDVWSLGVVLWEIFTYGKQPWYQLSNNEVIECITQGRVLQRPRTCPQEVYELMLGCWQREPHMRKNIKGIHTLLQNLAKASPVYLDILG
T6 sequence (O75582 whole entry): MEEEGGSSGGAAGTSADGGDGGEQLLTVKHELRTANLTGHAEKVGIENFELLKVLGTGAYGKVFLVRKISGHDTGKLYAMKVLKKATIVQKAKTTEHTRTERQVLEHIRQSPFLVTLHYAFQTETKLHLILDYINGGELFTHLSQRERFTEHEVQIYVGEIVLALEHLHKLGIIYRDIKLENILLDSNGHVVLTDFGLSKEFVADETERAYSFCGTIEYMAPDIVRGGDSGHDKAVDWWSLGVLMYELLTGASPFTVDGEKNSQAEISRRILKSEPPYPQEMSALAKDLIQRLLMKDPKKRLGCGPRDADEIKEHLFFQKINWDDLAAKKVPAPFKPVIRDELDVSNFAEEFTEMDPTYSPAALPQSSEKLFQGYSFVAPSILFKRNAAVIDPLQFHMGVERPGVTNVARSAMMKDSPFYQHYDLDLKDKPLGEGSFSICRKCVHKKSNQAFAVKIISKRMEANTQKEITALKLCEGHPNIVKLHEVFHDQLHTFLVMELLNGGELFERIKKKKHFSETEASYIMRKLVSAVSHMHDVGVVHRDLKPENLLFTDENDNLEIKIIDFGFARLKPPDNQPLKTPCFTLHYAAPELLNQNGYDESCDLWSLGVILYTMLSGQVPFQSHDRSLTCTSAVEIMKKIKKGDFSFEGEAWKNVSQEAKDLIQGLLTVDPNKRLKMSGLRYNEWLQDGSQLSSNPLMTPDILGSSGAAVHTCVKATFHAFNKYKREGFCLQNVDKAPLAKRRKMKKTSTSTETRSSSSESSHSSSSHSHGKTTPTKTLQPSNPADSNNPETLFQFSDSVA
T14 sequence (P50750 whole entry): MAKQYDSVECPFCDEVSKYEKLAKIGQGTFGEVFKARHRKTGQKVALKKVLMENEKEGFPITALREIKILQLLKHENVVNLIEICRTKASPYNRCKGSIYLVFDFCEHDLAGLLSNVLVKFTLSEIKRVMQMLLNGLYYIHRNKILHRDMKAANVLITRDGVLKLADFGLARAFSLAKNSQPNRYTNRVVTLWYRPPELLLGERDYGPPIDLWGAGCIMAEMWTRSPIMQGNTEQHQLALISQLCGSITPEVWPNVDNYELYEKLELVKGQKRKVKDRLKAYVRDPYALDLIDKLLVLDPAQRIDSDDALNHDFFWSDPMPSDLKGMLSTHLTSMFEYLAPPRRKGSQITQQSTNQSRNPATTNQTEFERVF
T14 sequence (O60563 whole entry partner): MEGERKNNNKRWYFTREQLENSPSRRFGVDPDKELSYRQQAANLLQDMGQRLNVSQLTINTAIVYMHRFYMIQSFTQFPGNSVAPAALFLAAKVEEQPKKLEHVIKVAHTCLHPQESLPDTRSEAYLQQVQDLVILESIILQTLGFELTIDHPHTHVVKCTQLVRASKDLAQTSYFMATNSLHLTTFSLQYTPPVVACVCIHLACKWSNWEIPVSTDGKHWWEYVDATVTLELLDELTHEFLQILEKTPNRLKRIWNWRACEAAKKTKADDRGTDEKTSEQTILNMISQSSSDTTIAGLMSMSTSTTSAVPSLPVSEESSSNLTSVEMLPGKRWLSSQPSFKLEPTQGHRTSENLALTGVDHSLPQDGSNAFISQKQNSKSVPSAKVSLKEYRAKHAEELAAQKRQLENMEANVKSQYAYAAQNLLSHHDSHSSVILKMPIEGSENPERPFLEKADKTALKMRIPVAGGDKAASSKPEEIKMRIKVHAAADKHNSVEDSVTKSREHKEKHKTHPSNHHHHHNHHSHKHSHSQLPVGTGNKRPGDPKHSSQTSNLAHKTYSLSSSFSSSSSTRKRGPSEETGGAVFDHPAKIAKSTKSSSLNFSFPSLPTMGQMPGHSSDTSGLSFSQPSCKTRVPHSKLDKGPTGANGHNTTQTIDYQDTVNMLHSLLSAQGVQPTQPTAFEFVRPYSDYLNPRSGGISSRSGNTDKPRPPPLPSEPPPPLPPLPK

What is called IC50 is the midpoint of a concentration-inhibition curve. With `CN(C)c1cc(-c2ccncc2)c(-c2ccc3ccccc3c2)nn1` [MW108, N, N-dimethyl-6-(naphthalen-2-yl)-5-(pyridin-4-yl)pyridazin-3-amine], the activity at 20 µM in assay [1] came out at 99%; in assay [2] it was 101%; in assay [3], 86%; in [4], 36%; in [5], 11%; in assay [6], 97%. The activity at 20 µM in assay [7] was 99%; in [8] it was 104%; in [9], 96%; in [10], 97%; in assay [11], 78%; in assay [12], 50%. Moreover, the activity at 20 µM in assay [14] amounted to 92%; in assay [15] it was 99%; in [16], 95%; in assay [17] it was 105%. For the same compound, the 50% inhibitory concentration (IC50) in [4] came to 16.2 µM; in assay [5], 2.86 µM. The “LPS-induced IL-1β production, WT microglia” value in assay [13] is on record as “inhibited LPS-induced IL-1β production”.
`CN(C)c1cc(-c2ccncc2)c(-c2cccc3ccccc23)nn1` [MW181, N,N-dimethyl-6-(naphthalen-1-yl)-5-(pyridin-4-yl)pyridazin-3-amine]: the activity at 20 µM was found to be 90% in [1]; 100% in assay [2]; 100% in assay [3]; 92% in [4]; 86% in assay [5] (setting [19]); 106% in assay [6]. Further, the activity at 20 µM in [7] was determined as 115%; in assay [8], 105%; in [18], 6%; in [10], 103%; in [11] (setting [19]) it was 109%; in [12], 97%. Moreover, the activity at 20 µM in assay [14] turned out to be 104%; in [15] it was 100%; in [16], 104%; in assay [17], 107%.
